From patent WO2009115235A1, “Pde inhibitors for the treatment of pulmonary hypertension” (Bayer Schering Pharma AG, priority 2008, dated 2009)

What was measured:
[1] = tested on: isolated rat pulmonary vessels; test: Relaxation of isolated small pulmonary arteries precontracted with norepinephrine (organ bath / vessel myograph); set-up: species or system rat (male Wistar); conditions: comparison of vardenafil, sildenafil and tadalafil
[2] = tested on: conscious Beagle dogs; test: Measurement of Pulmonary Artery Pressure in conscious telemetric Beagle dogs; type: in vivo, dog (male Beagle); conditions: for lowering of pulmonary artery pressure (in words): conscious dogs; for reduction of U44096-induced PH (pulmonary artery pressure): conscious Beagle dogs, significant

## CCCc1nc(C)c2c(=O)[nH]c(-c3cc(S(=O)(=O)N4CCN(CC)CC4)ccc3OCC)nn12 [Vardenafil, vardenafil]
[1]
  relaxation of rat pulmonary vessels (ranking of PDE5 inhibitors): most prominent
[1]; listed as vardenafil
  relaxation of rat pulmonary vessels (ranking of PDE5 inhibitors): relaxed pulmonary vessels of rat more potently then the PDE5 inhibitors sildenafil and tadalafil
[2]; inhalation compared with oral application, conscious dogs with telemetric implant
  decrease of pulmonary artery pressure, inhaled vs oral (in words): more potently decreased pulmonary artery pressure then Vardenafil applied orally
[2]; inhalation, 30μg/kg, compared with 10-fold higher oral dose
  lowering of pulmonary artery pressure (in words): could lower pulmonary artery pressure as significantly as with the 10-fold higher oral dose
[2]; inhaled, 30μg/kg nebulized within 10 minutes
  reduction of U44096-induced PH (pulmonary artery pressure): 30%
[2]; inhaled, 30μg/kg/10 min, whole observation period 3 hours
  duration of the decrease of the pulmonary artery pressure: ≥ 3 h
[2]; oral, 300μg/kg
  reduction of U44096-induced PH (pulmonary artery pressure): 30%
  lowering of pulmonary artery pressure (in words): significantly lowered pulmonary artery pressure
